Like-named read-outs stand apart in the source and are kept apart here.
What was measured:
Assay type in all cases: cell-based
[1] = tested on: RSV-Fluc (Recombinant Respiratory Syncytial virus strain A2 containing the firefly luciferase reporter); experiment: microbe, parasite or virus in culture; details: human respiratory syncytial virus, NHBE, 72 h, read-out: RSV-Fluc EC50 (nM, NHBE)
[2] = tested on: SARS-CoV-2; experiment: microbe, parasite or virus in culture; details: Severe acute respiratory syndrome coronavirus 2, 48 h
[3] = MT4 cytotoxicity analysis (CellTiter-Glo); details: human
Experimental: Example 79: MT4 Cytotoxicity Analysis
3-fold serially diluted compound in DMSO, ranging from 2.5 uM to 10 mM, were added by acoustic transfer (Echo) in quadruplicate into black 384-well plates at 200 nl/well. After compound addition, 40 ul MT-4 cells at 80,000/ml were added to each well using a MicroFlo liquid dispenser (BioTek, Winooski, VT) and the cells were cultured for five days at 37° C. Following the incubation, cell viability was determined by adding 35 μL of CellTiter-Glo viability reagent and mixed thoroughly using ViaFlo 384 well workstation. The mixture was incubated for at least 10 minutes at 25° C., and the luminescence signal was quantified on an EnVision plate reader.

SMILES	EC50 [1] [nM]	EC50 [2] [nM]	CC50 at 5 days ([3]; MT4 CC50 (nM)) [nM]	CC50 at 5 days ([3]; MT-4 cells, five days, CellTiter-Glo, read-out: MT4 CC50) [nM]
CCCCCCCCCCCCCCCCCCOC[C@H](COP(=O)(O)OC[C@H]1O[C@@](C#N)(c2ccc3c(N)ncnn23)[C@H](O)[C@@H]1O)Oc1c(C#N)cc(C)cc1C#N [Example 29, ((2R,3S,4R,5R)-5-(4-aminopyrrolo[2,1-f][1,2,4]triazin-7-yl)-5-cyano-3,4-dihydroxytetrahydrofuran-2-yl)methyl ((R)-2-(2,6-dicyano-4-methylphenoxy)-3-(octadecyloxy)propyl) hydrogen phosphate]	70	2700	500	
CCCCCCCCCCCCCCCCCCOC[C@H](COP(=O)(O)OC[C@H]1O[C@@](C#N)(c2ccc3c(N)ncnn23)[C@H](O)[C@@H]1O)Nc1ccccc1C(=O)O [Example 31, 2-(((2R)-1-(((((2R,3S,4R,5R)-5-(4-aminopyrrolo[2,1-f][1,2,4]triazin-7-yl)-5-cyano-3,4-dihydroxytetrahydrofuran-2-yl)methoxy)(hydroxy)phosphoryl)oxy)-3-(octadecyloxy)propan-2-yl)amino)benzoic acid]	260	6300	38000	
CCCCCCCCCCCCCCCCCCOC[C@H](COP(=O)(O)OC[C@H]1O[C@@](C#N)(c2ccc3c(N)ncnn23)[C@H](O)[C@@H]1O)OCc1cc(F)cc(S(C)(=O)=O)c1 [Example 32, ((2R,3S,4R,5R)-5-(4-aminopyrrolo[2,1-f][1,2,4]triazin-7-yl)-5-cyano-3,4-dihydroxytetrahydrofuran-2-yl)methyl ((R)-2-((3-fluoro-5-(methylsulfonyl)benzyl)oxy)-3-(octadecyloxy)propyl) hydrogen phosphate]	40	120	340	
CCCCCCCCCCCCCCCCCCOC[C@H](COCc1cc(F)cc(C#N)c1)OP(=O)(O)OC[C@H]1O[C@@](C#N)(c2ccc3c(N)ncnn23)[C@H](O)[C@@H]1O [Example 36, ((2R,3S,4R,5R)-5-(4-aminopyrrolo[2,1-f][1,2,4]triazin-7-yl)-5-cyano-3,4-dihydroxytetrahydrofuran-2-yl)methyl ((R)-1-((3-cyano-5-fluorobenzyl)oxy)-3-(octadecyloxy)propan-2-yl) hydrogen phosphate]	190	1200	28000	
CCCCCCCCCCCCCCCCCCOC[C@H](COc1cc(F)cc(C#N)c1)OP(=O)(O)OC[C@H]1O[C@@](C#N)(c2ccc3c(N)ncnn23)[C@H](O)[C@@H]1O [Example 39, ((2R,3S,4R,5R)-5-(4-aminopyrrolo[2,1-f][1,2,4]triazin-7-yl)-5-cyano-3,4-dihydroxytetrahydrofuran-2-yl)methyl ((R)-1-(3-cyano-5-fluorophenoxy)-3-(octadecyloxy)propan-2-yl) hydrogen phosphate]	78	190	2800	
CCCCCCCCCCCCCCCCCCOC[C@H](COc1ccc(C#N)cn1)OP(=O)(O)OC[C@H]1O[C@@](C#N)(c2ccc3c(N)ncnn23)[C@H](O)[C@@H]1O [Example 41, ((2R,3S,4R,5R)-5-(4-aminopyrrolo[2,1-f][1,2,4]triazin-7-yl)-5-cyano-3,4-dihydroxytetrahydrofuran-2-yl)methyl ((R)-1-((5-cyanopyridin-2-yl)oxy)-3-(octadecyloxy)propan-2-yl) hydrogen phosphate]	63	130	1900	
CCCCCCCCCCCCCCCCCCOC[C@H](COP(=O)(O)OC[C@H]1O[C@@](C#N)(c2ccc3c(N)ncnn23)[C@H](O)[C@@H]1O)Nc1ccc(C#N)cn1 [Example 42, ((2R,3S,4R,5R)-5-(4-aminopyrrolo[2,1-f][1,2,4]triazin-7-yl)-5-cyano-3,4-dihydroxytetrahydrofuran-2-yl)methyl ((R)-2-((5-cyanopyridin-2-yl)amino)-3-(octadecyloxy)propyl) hydrogen phosphate]	180	4600	550	
CCCCCCCCCCCCCCCCCCOC[C@H](COP(=O)(O)OC[C@H]1O[C@@](C#N)(c2ccc3c(N)ncnn23)[C@H](O)[C@@H]1O)OCc1cncc(S(C)(=O)=O)c1 [Example 43, ((2R,3S,4R,5R)-5-(4-aminopyrrolo[2,1-f][1,2,4]triazin-7-yl)-5-cyano-3,4-dihydroxytetrahydrofuran-2-yl)methyl ((R)-2-((5-(methylsulfonyl)pyridin-3-yl)methoxy)-3-(octadecyloxy)propyl) hydrogen phosphate]	59	79	280	
CCCCCCCCCCCCCCCCCC(=O)NC[C@H](COP(=O)(O)OC[C@H]1O[C@@](C#N)(c2ccc3c(N)ncnn23)[C@H](O)[C@@H]1O)OCc1cc(F)cc(C#N)c1 [Example 45, ((2R,3S,4R,5R)-5-(4-aminopyrrolo[2,1-f][1,2,4]triazin-7-yl)-5-cyano-3,4-dihydroxytetrahydrofuran-2-yl)methyl ((R)-2-((3-cyano-5-fluorobenzyl)oxy)-3-stearamidopropyl) hydrogen phosphate]	82	140	950	
CCCCCCCCCCCCCCCCCCOC[C@H](COc1ccc(C#N)nn1)OP(=O)(O)OC[C@H]1O[C@@](C#N)(c2ccc3c(N)ncnn23)[C@H](O)[C@@H]1O [Example 46, ((2R,3S,4R,5R)-5-(4-aminopyrrolo[2,1-f][1,2,4]triazin-7-yl)-5-cyano-3,4-dihydroxytetrahydrofuran-2-yl)methyl ((R)-1-((6-cyanopyridazin-3-yl)oxy)-3-(octadecyloxy)propan-2-yl) hydrogen phosphate]	26	120	420	
CCCCCCCCCCCCCCCCCCNC(=O)[C@H](COP(=O)(O)OC[C@H]1O[C@@](C#N)(c2ccc3c(N)ncnn23)[C@H](O)[C@@H]1O)OCc1cc(F)cc(C#N)c1 [Example 47, ((2R,3S,4R,5R)-5-(4-aminopyrrolo[2,1-f][1,2,4]triazin-7-yl)-5-cyano-3,4-dihydroxytetrahydrofuran-2-yl)methyl ((S)-2-((3-cyano-5-fluorobenzyl)oxy)-3-(octadecylamino)-3-oxopropyl) hydrogen phosphate]	32	120	420	
CCCCCCCCCCCCCCCCCCOC[C@H](COP(=O)(O)OC[C@H]1O[C@@](C#N)(c2ccc3c(N)ncnn23)[C@H](O)[C@@H]1O)NC(=O)c1ccccc1C#N [Example 58, ((2R,3S,4R,5R)-5-(4-aminopyrrolo[2,1-f][1,2,4]triazin-7-yl)-5-cyano-3,4-dihydroxytetrahydrofuran-2-yl)methyl ((R)-2-(2-cyanobenzamido)-3-(octadecyloxy)propyl) hydrogen phosphate]	300	5100	43000	
CCCCCCCCCCCCCCOCCOP(=O)(O)OC[C@H]1O[C@@](C#N)(c2ccc3c(N)ncnn23)[C@H](O)[C@@H]1O [Example 59, [(2R,3S,4R,5R)-5-(4-Aminopyrrolo[2,1-f][1,2,4]triazin-7-yl)-5-cyano-3,4-dihydroxy-tetrahydrofuran-2-yl]methyl 2-tetradecoxyethyl hydrogen phosphate]	170	10000	16000	
CCCCCCCCCCCCCCCCCOCCOP(=O)(O)OC[C@H]1O[C@@](C#N)(c2ccc3c(N)ncnn23)[C@H](O)[C@@H]1O [Example 60, [(2R,3S,4R,5R)-5-(4-aminopyrrolo[2,1-f][1,2,4]triazin-7-yl)-5-cyano-3,4-dihydroxy-tetrahydrofuran-2-yl]methyl 2-heptadecoxyethyl hydrogen phosphate]	240	2000	4800	
CCCCCCCCCCCCCCSCCCOP(=O)(O)OC[C@H]1O[C@@](C#N)(c2ccc3c(N)ncnn23)[C@H](O)[C@@H]1O [Example 61, [(2R,3S,4R,5R)-5-(4-aminopyrrolo[2,1-f][1,2,4]triazin-7-yl)-5-cyano-3,4-dihydroxy-tetrahydrofuran-2-yl]methyl 3-tetradecylsulfanylpropyl hydrogen phosphate]	200	6100	12000	
CCCCCCCCCCCCCCCCCSCCCOP(=O)(O)OC[C@H]1O[C@@](C#N)(c2ccc3c(N)ncnn23)[C@H](O)[C@@H]1O [Example 62, [(2R,3S,4R,5R)-5-(4-Aminopyrrolo[2,1-f][1,2,4]triazin-7-yl)-5-cyano-3,4-dihydroxy-tetrahydrofuran-2-yl]methyl 3-heptadecylsulfanylpropyl hydrogen phosphate]	230	9800	24000	
CCCCCCCCCCCCCCCCCCOC[C@H](COP(=O)(O)OC[C@H]1O[C@@](C#N)(c2ccc3c(N)ncnn23)[C@H](O)[C@@H]1O)OCc1ccc(F)c(Cl)c1F [Example 64, [(2R,3S,4R,5R)-5-(4-Aminopyrrolo[2,1-f][1,2,4]triazin-7-yl)-5-cyano-3,4-dihydroxy-tetrahydrofuran-2-yl]methyl [(2R)-2-[(3-chloro-2,4-difluoro-phenyl)methoxy]-3-octadecoxy-propyl] hydrogen phosphate]	86	400	3100	
CCCCCCCCCCCCCCCCCCOC[C@H](CO[P@](O)(=S)OC[C@H]1O[C@@](C#N)(c2ccc3c(N)ncnn23)[C@H](O)[C@@H]1O)OCc1cc(F)cc(C#N)c1 [Example 68]	120	360		670
